Results as given in patent publication US20220332836A1, “A METHOD FOR PREVENTING HUMAN VIRUS ASSOCIATED DISORDERS IN PATIENTS” (NOVARTIS AG, priority 2019, published 2022).

Legend:
[1] = system: PBMC incubated with EBV supernatant; experiment: EBV regression assay with PBMC; format: cell-based, human
Experimental: Buffy coats from six healthy volunteers (18-001 to 18-006) were received from Blutspendezentrum Bern. Peripheral blood mononuclear cells (PBMC) were isolated using LeucoSep tubes following manufacturer's instructions, counted with TC20 and adjusted in cell culture medium (Medium, buffers and reagents). All conditions (see Table 3-2) were run in five replicates in 96-well U-bottom plates and contained 2×10^5 cells/well. PBMC were incubated for 10-15 minutes at 37° C. before adding cell culture medium containing EBV-supernatant and transferrin (see Medium, buffers and reagents). […] Cell pellets were stained and analyzed by flow cytometry (FACS staining procedure).
In FIG. 1, the gating strategy is shown.

[2] = system: EBV-seronegative EBV-B cell/T cell co-cultures; experiment: EBV-B cell/T cell co-culture, EBV-seronegative donors; format: cell-based, human
[3] = system: EBV-seropositive EBV-B cell/T cell co-cultures; experiment: EBV-B cell/T cell co-culture, EBV-seropositive donors
human CD40 = biological target: T1, human CD40 (human, UniProt P25942 21-193, limits assumed); experiment: method not stated
T1 construct: also called tumor necrosis factor receptor superfamily member 5

[4] = system: NK cell-depleted PBMC cultures; experiment: EBV regression assay, complete or NK cell-depleted PBMC; format: cell-based, human; details: 14 days
Excerpt: (§1) FIG. 16 provides CD3^+ T cell counts from the NK cell-depleted PBMC regression assay after 14 days of culture measured by flow cytometry. Antibodies (in μg/mL) and CsA (in μM) were given in combination with EBV supernatants (except the negative control=medium w/o EBV). Dotted horizontal line was set to the condition ‘medium+EBV’. Data are shown as mean+SEM (n=4).
as §1, with “17” for “16”, “CD19^+ B cell counts from the PBMC regression assay after 14 days of culture measured by flow cytometry. Antibodies (in μg/mL) and CsA (in μM) were given in combination with EBV supernatants (except the negative control=medium w/o EBV). Dotted horizontal line was set to the condition ‘medium+EBV’. Data are shown as mean+SEM (n=4); and CD19^+ B” for “CD3^+ T”
All conditions except ‘medium w/o EBV’ were incubated with EBV supernatant and respective compound or antibodies. […] Looking at the CD19+ B cell proliferation (FIG. 3), there was an obvious increase in CD19+ B cell counts when PBMC were incubated with EBV supernatant compared to PBMC cultured with medium only (medium w/o EBV). […]

[5] = 14 days, CsA 0.1, 1 μM, Belatacept 10, 50 μg/mL, CFZ533, hIgG1 10-200 μg/mL, vs medium+EBV
[6] = 10-200 μg/mL, priming, recall, priming and recall, 11 days

T1 sequence (P25942 21-193 limits assumed): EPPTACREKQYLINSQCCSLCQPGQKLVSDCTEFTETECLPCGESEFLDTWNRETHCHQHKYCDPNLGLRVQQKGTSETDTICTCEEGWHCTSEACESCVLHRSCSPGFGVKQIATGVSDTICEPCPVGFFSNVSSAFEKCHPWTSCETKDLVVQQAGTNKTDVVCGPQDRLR

Molecule: Belatacept: CTLA4-Ig fusion protein; blocks CD80/CD86 and thereby inhibits T cell costimulation
- CD3+ T cell counts [1, 5]: to a lesser degree than with CsA
- CD19+ B cell counts [1, 5]: increase
- T cell activity (resulting in over-growth of in vitro immortalized cells) ([1]; EBV regression assay): reduced
- CD4+ T cell proliferation, differences between the four doses ([2]; 10, 50, 100 and 200 μg/mL): no evident differences
- CD4+ T cell proliferation ([2]; 10-200 μg/mL, all three conditions): reduced
- CD3+ T cell proliferation [2, 6]: reduced
- CD8+ T cell proliferation ([2]; 10 and 50 μg/mL, recall only and priming and recall): only a reducing effect
- CD3+ T cell proliferation ([2]; 100 and 200 μg/mL, priming and recall condition): only a reducing effect
- CD3+ T cell proliferation ([2]; 100 and 200 μg/mL, priming or recall only condition): only minor
- CD8+ T cell proliferation ([2]; 100 and 200 μg/mL, priming phase only): increased
- CD3+ T cell proliferation, 10 and 50 μg/mL versus 100 and 200 μg/mL ([2]; all three conditions): slightly stronger but not significant suppression pattern
- CD3+ T cell proliferation [3, 6]: reduced
- CD4+ T cell proliferation [3, 6]: reduced
- CD3+ T cell proliferation ([3]; 100 and 200 μg/mL): only an reducing effect on the T cell proliferation at the ‘priming and recall’ phase
- CD4+ T cell proliferation ([3]; 100 and 200 μg/mL, priming and recall phase): robust reducing effect
- CD3+ T cell proliferation, 10 and 50 μg/mL versus 100 and 200 μg/mL ([3]; all three conditions): slightly stronger but not significant suppression pattern
- CD4+ T cell proliferation, 10 and 50 μg/mL versus 100 and 200 μg/mL ([3]; all three conditions): slightly stronger but not significant suppression pattern
- EBV-mediated T cell proliferation and IFNγ secretion in presence of EBV-B cells ([3]; co-culture system, EBV-B cells sero-positive and sero-negative): reduced

B1: mAb1 (antibody, human IgG1, kappa, N297A, V domains shown)
VH: QVQLVESGGGVVQPGRSLRLSCAASGFTFSSYGMHWVRQAPGKGLEWVAVISYEESNRYHADSVKGRFTISRDNSKITLYLQMNSLRTEDTAVYYCARDGGIAAPGPDYWGQGTLVTVSS
VL: DIVMTQSPLSLTVTPGEPASISCRSSQSLLYSNGYNYLDWYLQKPGQSPQVLISLGSNRASGVPDRFSGSGSGTDFTLKISRVEAEDVGVYYCMQARQTPFTFGPGTKVDIRR
notes: also called CFZ533; Iscalimab
- Kd (human CD40): 0.3 nM

B2: HCD122: a depleting CD40 mAb as positive control (antibody, chains of the INN, looked up, V domains shown)
VH: B1 VH
VL: DIVMTQSPLSLTVTPGEPASISCRSSQSLLYSNGYNYLDWYLQKPGQSPQVLISLGSNRASGVPDRFSGSGSGTDFTLKISRVEAEDVGVYYCMQARQTPFTFGPGTKVDIR
- CD19+ B cell counts [4]: did deplete B cells
